From patent US12453735B2, “Treating cancer with a CCK receptor inhibitor and an immune checkpoint inhibitor” (GEORGETOWN UNIVERSITY, priority 2017, dated 2025)
“Also recorded” adds a separate entry of the source.

How the values were obtained:
Panc02 cells [1] = experiment: Orthotopic Panc02 pancreatic tumors in SCID mice; type: in vivo, mouse
Excerpt: (§1) Animal Models—Three different murine models were used in this investigation: 1) severe combined immune deficiency (B6.CB17-Prkdc^scid/SzJ; SCID) mice to study the role of CCKR blockade on orthotopic cancer growth and metastasis independent of immune cells, 2) immune competent Pdx1-Cre/LSL-Kras^G12D transgenic mice for a pancreatic carcinogenesis model to study the role of CCKR blockade on the pancreatic stellate cells and immune cells of the pancreas, and 3) immune competent C57BL/6 mice to study the role of CCKR antagonist in combination with immune checkpoint antibodies on growth and survival of mice bearing syngeneic PDAC tumors. Institutional guidelines for care and use of laboratory animals were followed throughout the study in accordance with protocols approved by the Georgetown University Institutional Animal Use and Care Committee.
(§2) Four weeks after tumor inoculation mice were euthanized, tumors removed and weighed, and the number of metastases counted. TILs were evaluated in tumors of the C57BL/6 mice by immunohistochemistry and fibrosis assessed with Masson's trichrome stain.

Panc02 cells [2] = experiment: Orthotopic Panc02 pancreatic tumors in immune competent C57BL/6 mice; type: in vivo, mouse
Excerpt: as §1, §2

Panc02 cells [3] = experiment: Subcutaneous Panc02 tumors in C57BL/6 mice, CCKR antagonist and PD-1 antibody; type: in vivo, mouse; conditions: vs PBS; for tumor size / tumor volume: Panc02 in C57BL/6, L364,718 4 mg/kg tiw ip, PD-1 antibody 125 μg×3 injections
Procedure: (§3) Cells were cultured in DMEM: F12 media with 10% FBS. […] In the following series of experiments Panc02 cells (1×10^6 or 2×10^6) were injected either orthotopically or subcutaneously in animals.
(§4) Treatments—Two different CCK receptor antagonists were used in this investigation. […] The other CCK receptor antagonist used was proglumide which is an orally bioavailable nonselective antagonist that blocks both the CCK-A and CCK-B receptors. Proglumide (Tocris Bioscience) was administered in the drinking water at a concentration of 0.1 mg/mL, or approximately 30 mg/kg/d per mouse.
(§5) Two immune checkpoint blockade antibodies were used in this investigation. The antibody to the programmed cell death protein 1 (PD1-Ab) (Bio X cell, West Lebanon, NH) was administered intraperitoneally to mice at a dose of either 125 μg×3 injections or 200 μg every 3 days.
(§6) Another series of experiments was performed in C57BL/6 mice to evaluate the role of CCKR blockade in combination with immune checkpoint antibody therapy. Each series of experiments was performed using 40 mice with syngeneic murine tumors. […] The primary end point was tumor volume (1,000 mm^3) or mouse survival. Tumors were excised and examined histologically, and by immunohistochemistry, or by flow cytometry for immune cells.
(§7) Tumor sections were also stained with either CD3 antibodies (1:85; DAKO, Carpinteria, CA); CD8 antibodies (1:75; eBioscience, San Diego, CA); CD4 antibodies (1:225; eBioscience), or FoxP3 antibody (1:30; eBioscience) and immunoreactive cells counted manually.

pancreatic primary tumor = conditions: immune competent mouse, 4 mg/kg three times weekly ip; cited from earlier work
pancreatic cancer tumor = conditions: immune deficient nude mouse, 2 mg/kg twice daily; cited from earlier work
Panc02 cells [4] = experiment: Survival and tumor immune cells of C57BL/6 mice bearing subcutaneous Panc02 tumors, CCKR antagonist and CTLA-4 antibody
Procedure: as §3, §4, §5, §6, §7

[5] = system: pancreas of Pdx1-Cre/LSL-Kras^G12D transgenic mouse; experiment: Pancreatic carcinogenesis model, Pdx1-Cre/LSL-Kras^G12D transgenic mice; type: in vivo; conditions: proglumide in drinking water for 4 months
Excerpt: as §1
The second series of experiments was performed to analyze the role of CCKR antagonist monotherapy on the TILs of the pancreas microenvironment during pancreatic carcinogenesis using the Pdx1-Cre/LSL-Kras^G12D transgenic mouse. After the mice reached 3-4 months of age, when PanINs and fibrosis are established, mice were treated with either proglumide (in the drinking water) or untreated water. After 4 months of therapy, the pancreata were excised and compared to the pancreas of age-matched litter mates of mice on untreated water. […]

Panc02 cells [6] = conditions: 2×10^6 Panc02 cells, vs PBS
Procedure: as §3
(§8) Subcutaneous tumor volumes were measured with calipers weekly in animals bearing subcutaneous tumors using the formula Length×(width)^2×0.5.
as §4
Two immune checkpoint blockade antibodies were used in this investigation. […] The antibody to cytotoxic T-lymphocyte-associated antigen 4 (CTLA-4 Ab; Bio-X cell, West Lebanon, NH) was given at a dose of 200 μg every 3 days by intraperitoneal injections.
Another series of experiments was performed in C57BL/6 mice to evaluate the role of CCKR blockade in combination with immune checkpoint antibody therapy. Each series of experiments was performed using 40 mice with syngeneic murine tumors. […]
Comparisons were made by ANOVA and student's t-test. […] Survival was analyzed by Kaplan Meier analysis and differences by hazard ratios using Prism Software (GraphPad software, Inc., San Diego, CA). […]

CCK-B receptor = target: T1, CCK-B receptor (Homo sapiens, UniProt P32239); conditions: cited from earlier work
T1 sequence (P32239 1-447): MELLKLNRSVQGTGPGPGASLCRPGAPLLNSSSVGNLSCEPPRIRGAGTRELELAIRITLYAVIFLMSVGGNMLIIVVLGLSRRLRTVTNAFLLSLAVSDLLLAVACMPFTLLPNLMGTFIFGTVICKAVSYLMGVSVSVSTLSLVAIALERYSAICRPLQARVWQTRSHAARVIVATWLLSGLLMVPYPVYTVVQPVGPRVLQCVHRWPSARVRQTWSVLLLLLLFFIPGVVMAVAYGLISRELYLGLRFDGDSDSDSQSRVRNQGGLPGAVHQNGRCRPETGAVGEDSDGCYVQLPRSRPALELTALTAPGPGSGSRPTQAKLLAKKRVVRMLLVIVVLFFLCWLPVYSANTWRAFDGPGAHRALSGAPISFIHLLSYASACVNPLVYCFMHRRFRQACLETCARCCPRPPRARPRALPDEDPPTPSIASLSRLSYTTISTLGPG

[7] = cited from earlier work
CCK-A receptor = target: T2, CCK-A receptor (Homo sapiens, UniProt P32238); conditions: cited from earlier work
T2 sequence (P32238 1-428): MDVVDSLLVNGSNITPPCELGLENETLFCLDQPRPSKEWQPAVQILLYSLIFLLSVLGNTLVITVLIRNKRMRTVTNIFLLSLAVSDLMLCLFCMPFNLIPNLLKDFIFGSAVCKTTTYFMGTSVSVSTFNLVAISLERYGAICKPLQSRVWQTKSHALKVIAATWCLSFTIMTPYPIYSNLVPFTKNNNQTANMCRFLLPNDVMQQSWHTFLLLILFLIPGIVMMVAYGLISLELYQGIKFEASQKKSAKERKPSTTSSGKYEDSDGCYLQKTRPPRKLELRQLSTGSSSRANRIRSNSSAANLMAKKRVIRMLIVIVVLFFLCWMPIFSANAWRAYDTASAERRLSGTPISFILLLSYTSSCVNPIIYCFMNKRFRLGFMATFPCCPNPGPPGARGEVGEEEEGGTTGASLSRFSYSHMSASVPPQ

[8] = Panc02 tumors, immunohistochemistry

Procedure for mT3 cells: The cell line is also syngeneic to C57BL/6 mice; and therefore, capable of being studied in immune competent mice.
as §8
Proglumide (Tocris Bioscience) was administered in the drinking water at a concentration of 0.1 mg/mL, or approximately 30 mg/kg/d per mouse.
The antibody to the programmed cell death protein 1 (PD1-Ab) (Bio X cell, West Lebanon, NH) was administered intraperitoneally to mice at a dose of either 125 μg×3 injections or 200 μg every 3 days.
In the 4th experiment, the mT3 cells (1×10^5) were injected and mice were treated with PBS, proglumide, the PD-1 antibody, or the combination of both compounds. […] The primary end point was tumor volume (1,000 mm^3) or mouse survival. Tumors were excised and examined histologically, and by immunohistochemistry, or by flow cytometry for immune cells.
Some tumors were stained with an antibody to α-SMA (Abeam; Ab124964 at 1:6000). Tumor sections were also stained with either CD3 antibodies (1:85; DAKO, Carpinteria, CA); CD8 antibodies (1:75; eBioscience, San Diego, CA); CD4 antibodies (1:225; eBioscience), or FoxP3 antibody (1:30; eBioscience) and immunoreactive cells counted manually.

CN1C(=O)[C@@H](NC(=O)c2cc3ccccc3[nH]2)N=C(c2ccccc2)c2ccccc21 [L364,718, Devazepide]
primary tumor weight (Panc02 cells [1]; orthotopic 10^6 Panc02 cells, 4 mg/kg three times a week ip, four weeks, vs PBS): significantly reduced the primary tumor weight
metastases (Panc02 cells [1]; orthotopic Panc02, 4 mg/kg three times a week ip, 75% of untreated SCID mice had metastases): no metastases
metastases (Panc02 cells [2]; C57BL/6 mice, orthotopic Panc02, 4 mg/kg three times a week ip): decreased metastases
primary tumor size (Panc02 cells [2]; C57BL/6 mice, orthotopic Panc02, 4 mg/kg three times a week ip, vs PBS): did not alter the primary tumor size
CD3+ lymphocytes in tumor by immunohistochemistry (Panc02 cells [2]; orthotopic Panc02 tumors, C57BL/6 mice, vs PBS): significant increase in CD3+ lymphocytes
tumor size / tumor volume (Panc02 cells [3]): did not significantly decrease the tumor size
tumor size / tumor volume (Panc02 cells [3]; listed as L-364,718): not significantly smaller
CD4+ cells in tumor (immunohistochemistry) (Panc02 cells [3]; Panc02 tumors): increased
CD8+ cells in tumor (immunohistochemistry) (Panc02 cells [3]; Panc02 tumors): increased
inhibition of pancreatic primary tumor growth (pancreatic primary tumor): insufficient dose, by itself, to inhibit pancreatic primary tumor growth
number of metastases (pancreatic primary tumor): did decrease the number of metastases
pancreatic cancer tumor size (pancreatic cancer tumor): significant reduction in pancreatic cancer tumor size
average CD4+ cell numbers in tumor (Panc02 cells [4]; [8]): increased
average CD8+ cell numbers in tumor (Panc02 cells [4]; [8]): increased
mice still alive at day 50 (Panc02 cells [4]; subcutaneous Panc02, C57BL/6, all PBS controls had died by day 50): 42%

CCCN(CCC)C(=O)C(CCC(=O)O)NC(=O)c1ccccc1 (stereo not shown) [proglumide]
fibrosis of tumor microenvironment (Masson's trichrome stain) (Panc02 cells [2]; orthotopic Panc02 tumors, vs PBS/vehicle): marked decreased fibrosis
fibrosis of the pancreas microenvironment (trichrome stain) ([5]; vs age-matched controls): significantly diminished fibrosis; also recorded: significantly reversed fibrosis
CD3+ cells in mouse pancreas ([5]; vs untreated water): significant increase in the CD3+ cells
prolonged life (Panc02 cells [6]): 5 days
survived longer than PBS control mice (mT3 cells; mT3 pancreatic cancers, average): 12 days
number of Foxp3+ cells (Tregs) (mT3 cells; mT3 tumors, vs PBS): decreased
tumor-associated fibrosis by Masson's trichrome stain (mT3 cells; mT3 tumors, vs PBS): noticeably less
α-SMA immunoreactivity (activated fibroblasts) (mT3 cells; mT3 tumors, vs PBS): somewhat decreased with proglumide, but this change was not statistically significant
quantitative analysis of intratumoral fibrosis (mT3 cells; mT3 tumors, vs PBS controls and PD-1 monotherapy, p<0.01): significantly less fibrosis
growth of mT3 tumors / tumor size (mT3 cells; proglumide 0.1 mg/mL drinking water, PD-1 antibody 200 μg every three days, vs PBS): significantly slowed tumor growth; also recorded: significantly slower
antagonism at the CCK-B receptor (CCK-B receptor): inhibitory properties at both the CCK-A and CCK-B receptor types
water solubility [7]: water soluble
antagonism at the CCK-A receptor (CCK-A receptor): weaker nonselective CCK antagonist
